Measurements from ChEMBL document CHEMBL6103565, “Current strategies in design and synthesis of antifungals hybrid and chimeric diazine derivatives” (Bioorg Med Chem, 2025).
≈ marks a conversion by molar mass, not a printed value. Each block holds one compound with its values, some of them ahead of it.

Tests used:
Assay type in all cases: functional
Candida albicans [1] = experiment: Antifungal activity against Candida albicans assessed as diameter of zone inhibition by disc diffusion method
Aspergillus niger [2] = experiment: Antifungal activity against Aspergillus niger assessed as zone of inhibition by disc diffusion method
Candida tropicalis = experiment: Antifungal activity against Candida tropicalis assessed as inhibition of fungal growth
Aspergillus niger [3] = experiment: Antifungal activity against Aspergillus niger assessed as inhibition of fungal growth
Candida albicans [4] = experiment: Antifungal activity against Candida albicans assessed as zone of inhibition by disc diffusion method
Saccharomyces cerevisiae [5] = experiment: Antimicrobial activity against Saccharomyces cerevisiae assessed as zone of inhibition by disc diffusion method
Saccharomyces cerevisiae [6] = experiment: Antimicrobial activity against Saccharomyces cerevisiae assessed as zone of inhibition
Candida albicans [7] = experiment: Antifungal activity against Candida albicans
Candida albicans [8] = experiment: Antifungal activity against Candida albicans assessed as zone of inhibition by serial dilution and disc diffusion method

Compound: COC(=O)c1c(C(=O)OC)c2cccnn2c1C(=O)c1ccc(C)cc1
- inhibition zone (IZ) (Candida albicans [1]): 18 mm

Compound: CCOC(=O)c1cc(C(=O)c2ccc(C)cc2)n2ncccc12
- inhibition zone (IZ) (Candida albicans [1]): 18 mm

Compound: CC1=CC2C(C#N)CC(C(=O)c3ccc(Br)cc3)N2C=N1 (configuration not stated)
- inhibition zone (IZ) (Candida albicans [1]): 22 mm

Compound: CCOC(=O)c1cc(C(=O)c2ccc(C)cc2)n2nc(C)c3ccccc3c12
- inhibition zone (IZ) (Candida albicans [1]): 18 mm

Compound: COc1ccc(C2c3c([nH]c(=O)[nH]c3=O)OC3N=CN(c4cc(C)ccn4)C(=N)C32)cc1 (configuration not stated)
- inhibition zone (IZ) (Aspergillus niger [2]): 10 mm

Compound: CCOC(=O)c1c(C(=O)OCC)c2cc(C)ncn2c1C(=O)c1ccc(Br)cc1
- inhibition zone (IZ) (Candida albicans [1]): 22 mm

- MIC (Candida tropicalis): 110 µM (≈ 31.4 µg/mL)
- MIC (Aspergillus niger [3]): 110 µM (≈ 31.4 µg/mL)
Compound: Nc1nc(-c2ccccn2)cc(-c2cnc(Cl)cn2)n1

Compound: C(=N\c1ncnc2[nH]ccc12)/c1ccccc1
- inhibition zone (IZ) (Candida albicans [4]): 15 mm
- inhibition zone (IZ) (Saccharomyces cerevisiae [5]): 13 mm

Compound: Fc1ccccc1/C=N/c1ncnc2[nH]ccc12
- inhibition zone (IZ) (Candida albicans [4]): 15 mm
- inhibition zone (IZ) (Saccharomyces cerevisiae [5]): 13 mm

Compound: Fc1ccc(/C=N/c2ncnc3[nH]ccc23)cc1
- inhibition zone (IZ) (Candida albicans [4]): 15 mm
- inhibition zone (IZ) (Saccharomyces cerevisiae [5]): 13 mm

- MIC (Candida tropicalis): 97.3 µM (≈ 32 µg/mL)
- MIC (Aspergillus niger [3]): 97.3 µM (≈ 32 µg/mL)
Compound: Nc1nc(-c2ccc([N+](=O)[O-])cc2)cc(-c2cnc(Cl)cn2)n1

Compound: Fc1cccc(/C=N/c2ncnc3[nH]ccc23)c1
- inhibition zone (IZ) (Candida albicans [4]): 15 mm
- inhibition zone (IZ) (Saccharomyces cerevisiae [5]): 21 mm

Compound: CCOC(=O)c1c(C(=O)OCC)c2cc(C)ncn2c1C(=O)c1ccc([N+](=O)[O-])cc1
- inhibition zone (IZ) (Candida albicans [1]): 28 mm

Compound: COc1ccc(/C=N/Nc2ncnc3[nH]ccc23)cc1OC
- inhibition zone (IZ) (Saccharomyces cerevisiae [6]): 24 mm

Compound: CC1=NN2C(C(=O)c3ccc(C)cc3)CC(C#N)C2c2ccccc21 (configuration not stated)
- inhibition zone (IZ) (Candida albicans [1]): 18 mm

- MIC (Candida albicans [7]): 250 µg/mL
Compound: Cl.FC(F)(F)c1nnc2n1CCNC2

Compound: COc1ccc(C2c3c([nH]c(=O)[nH]c3=O)OC3N=CN(C(N)=O)C(=N)C32)cc1 (configuration not stated)
- inhibition zone (IZ) (Aspergillus niger [2]): 10 mm

Compound: CC1=NN(c2ccccc2)C2N=C3SCCN3C(c3ccccc3[N+](=O)[O-])C12 (configuration not stated)
- inhibition zone (IZ) (Aspergillus niger [2]): 24 mm

Compound: O=c1c(C(O)c2ccccc2)c2sc(S)c(-c3ccccc3)n2c2nc(-c3ccccc3)c(-c3ccccc3)n12 (configuration not stated)
- inhibition zone (IZ) (Aspergillus niger [2]): 15 mm

Compound: COC(=O)c1c(C(=O)OC)c2c3ccccc3cnn2c1C(=O)c1ccc(C)cc1
- inhibition zone (IZ) (Candida albicans [1]): 18 mm

Compound: CN(C)c1ccc(/C=N/c2c(N)n(Cc3ccccc3)c(=O)[nH]c2=O)cc1
- inhibition zone (IZ) (Candida albicans [4]): 10 mm

- MIC (Candida tropicalis): 107 µM (≈ 35.2 µg/mL)
- MIC (Aspergillus niger [3]): 107 µM (≈ 35.2 µg/mL)
Compound: COc1cc(-c2cc(-c3cnc(Cl)cn3)nc(N)n2)ccc1O

- MIC (Candida tropicalis): 110 µM (≈ 30.1 µg/mL)
- MIC (Aspergillus niger [3]): 110 µM (≈ 30.1 µg/mL)
Compound: Nc1nc(-c2cnc(Cl)cn2)cc(-c2ccc[nH]2)n1

- MIC (Candida tropicalis): 50 µM (≈ 16 µg/mL)
- MIC (Aspergillus niger [3]): 50 µM (≈ 16 µg/mL)
Compound: Nc1nc(-c2cnc(Cl)cn2)cc(-c2ccc(F)cc2F)n1

Compound: O=[N+]([O-])c1ccc(/C=N/c2ncnc3[nH]ccc23)cc1
- inhibition zone (IZ) (Candida albicans [4]): 15 mm
- inhibition zone (IZ) (Saccharomyces cerevisiae [5]): 13 mm

Compound: Cc1ccc(C2c3c([nH]c(=O)[nH]c3=O)OC(NC(=O)/C=C/C(=O)O)C2C#N)cc1 (configuration not stated)
- inhibition zone (IZ) (Aspergillus niger [2]): 10 mm

- MIC (Candida tropicalis): 45.4 µM (≈ 16 µg/mL)
- MIC (Aspergillus niger [3]): 45.4 µM (≈ 16 µg/mL)
Compound: Nc1nc(-c2cnc(Cl)cn2)cc(-c2ccc(Cl)cc2Cl)n1

Compound: CC1=NN(c2ccccc2)C2N=C3SCCN3C(c3cccc(Cl)c3)C12 (configuration not stated)
- inhibition zone (IZ) (Aspergillus niger [2]): 24 mm

Compound: CC1=NN(c2ccccc2)C2N=C3SCCN3C(c3ccc(F)cc3)C12 (configuration not stated)
- inhibition zone (IZ) (Aspergillus niger [2]): 24 mm

- MIC (Candida tropicalis): 110 µM (≈ 32 µg/mL)
- MIC (Aspergillus niger [3]): 110 µM (≈ 32 µg/mL)
Compound: Nc1nc(-c2cnc(Cl)cn2)cc(-c2cccs2)n1

Compound: CC1=CC2C(C#N)CC(C(=O)c3ccc([N+](=O)[O-])cc3)N2C=N1 (configuration not stated)
- inhibition zone (IZ) (Candida albicans [1]): 24 mm

Compound: COC(=O)c1c(C(=O)OC)c2c3ccccc3c(C)nn2c1C(=O)c1ccc(C)cc1
- inhibition zone (IZ) (Candida albicans [1]): 18 mm

Compound: CC1=NN2C(C(=O)c3ccc(C)cc3)C3C(=O)N(c4ccccc4)C(=O)C3C2c2ccccc21 (configuration not stated)
- inhibition zone (IZ) (Candida albicans [1]): 18 mm

- MIC (Candida tropicalis): 97.3 µM (≈ 31 µg/mL)
- MIC (Aspergillus niger [3]): 97.3 µM (≈ 31 µg/mL)
Compound: Nc1nc(-c2ccc(Cl)cc2)cc(-c2cnc(Cl)cn2)n1

Compound: COc1ccccc1/C=N/Nc1ncnc2[nH]ccc12
- inhibition zone (IZ) (Candida albicans [8]): 30 mm

Compound: COc1ccc(C2c3c([nH]c(=O)[nH]c3=O)OC3N=CN(c4ccccc4N)C(=N)C32)cc1 (configuration not stated)
- inhibition zone (IZ) (Aspergillus niger [2]): 10 mm

- MIC (Candida albicans [7]): 250 µg/mL (≈ 654 µM)
Compound: O=C(CN1CCn2c(nnc2C(F)(F)F)C1)Nc1nc2ccccc2s1

Compound: Cc1ccc(C(=O)C2C3C(=O)N(c4ccccc4)C(=O)C3C3c4ccccc4C=NN23)cc1 (configuration not stated)
- inhibition zone (IZ) (Candida albicans [1]): 18 mm

- MIC (Candida albicans [7]): 0.25 µg/mL (≈ 0.56 µM)
Compound: O=c1cc[nH]c(=O)n1N=C1CC(c2ccc(Cl)cc2)SC(c2ccc(Cl)cc2)C1 (configuration not stated)

Compound: Cc1ccc(C(=O)C2CC(C#N)C3c4ccccc4C=NN23)cc1 (configuration not stated)
- inhibition zone (IZ) (Candida albicans [1]): 18 mm

- MIC (Candida tropicalis): 97.3 µM (≈ 29 µg/mL)
- MIC (Aspergillus niger [3]): 97.3 µM (≈ 29 µg/mL)
Compound: Cc1ccc(-c2cc(-c3cnc(Cl)cn3)nc(N)n2)cc1

Compound: CCOC(=O)c1c(C(=O)OCC)c2cc(C)ncn2c1C(=O)c1ccc(OC)cc1
- inhibition zone (IZ) (Candida albicans [1]): 24 mm

- MIC (Candida tropicalis): 110 µM (≈ 31.4 µg/mL)
- MIC (Aspergillus niger [3]): 110 µM (≈ 31.4 µg/mL)
Compound: Nc1nc(-c2ccncc2)cc(-c2cnc(Cl)cn2)n1

Compound: CN(C)c1ccc(/C=N/c2ncnc3[nH]ccc23)cc1
- inhibition zone (IZ) (Candida albicans [4]): 15 mm
- inhibition zone (IZ) (Saccharomyces cerevisiae [5]): 13 mm

Compound: Cc1ccc(C2c3c([nH]c(=O)[nH]c3=O)OC(N)C2C#N)cc1 (configuration not stated)
- inhibition zone (IZ) (Aspergillus niger [2]): 10 mm

- MIC (Candida tropicalis): 97.3 µM (≈ 29.4 µg/mL)
- MIC (Aspergillus niger [3]): 97.3 µM (≈ 29.4 µg/mL)
Compound: Nc1nc(-c2ccc(F)cc2)cc(-c2cnc(Cl)cn2)n1

Compound: Cc1ccc(C(=O)C2C3C(=O)N(c4ccccc4)C(=O)C3C3C=CC=NN32)cc1 (configuration not stated)
- inhibition zone (IZ) (Candida albicans [1]): 18 mm

Compound: O=c1c(C(O)c2ccccc2)c(SCc2ccccc2)[nH]c2nc(-c3ccccc3)c(-c3ccccc3)n12 (configuration not stated)
- inhibition zone (IZ) (Aspergillus niger [2]): 15 mm

- MIC (Candida tropicalis): 97.3 µM (≈ 31.8 µg/mL)
- MIC (Aspergillus niger [3]): 97.3 µM (≈ 31.8 µg/mL)
Compound: CN(C)c1ccc(-c2cc(-c3cnc(Cl)cn3)nc(N)n2)cc1

- MIC (Candida tropicalis): 97.3 µM (≈ 29.2 µg/mL)
- MIC (Aspergillus niger [3]): 97.3 µM (≈ 29.2 µg/mL)
Compound: Nc1nc(-c2ccc(O)cc2)cc(-c2cnc(Cl)cn2)n1

Compound: Cc1ccc(C(=O)C2CC(C#N)C3C=CC=NN23)cc1 (configuration not stated)
- inhibition zone (IZ) (Candida albicans [1]): 18 mm

Compound: O=[N+]([O-])c1cccc(/C=N/c2ncnc3[nH]ccc23)c1
- inhibition zone (IZ) (Candida albicans [4]): 15 mm
- inhibition zone (IZ) (Saccharomyces cerevisiae [5]): 13 mm

- MIC (Candida tropicalis): 101 µM (≈ 34.6 µg/mL)
- MIC (Aspergillus niger [3]): 101 µM (≈ 34.6 µg/mL)
Compound: COc1ccc(-c2cc(-c3cnc(Cl)cn3)nc(N)n2)c(OC)c1

Compound: CCOC(=O)c1cc(C(=O)c2ccc(C)cc2)n2ncc3ccccc3c12
- inhibition zone (IZ) (Candida albicans [1]): 18 mm

- MIC (Candida tropicalis): 97.3 µM (≈ 30.5 µg/mL)
- MIC (Aspergillus niger [3]): 97.3 µM (≈ 30.5 µg/mL)
Compound: COc1ccc(-c2cc(-c3cnc(Cl)cn3)nc(N)n2)cc1

Compound: CC1=NN(c2ccccc2)C2N=C3SCCN3C(c3ccccc3O)C12 (configuration not stated)
- inhibition zone (IZ) (Aspergillus niger [2]): 24 mm

Compound: COc1ccc(C(=O)C2CC(C#N)C3C=C(C)N=CN23)cc1 (configuration not stated)
- inhibition zone (IZ) (Candida albicans [1]): 23 mm

Compound: CC1=NN(c2ccccc2)C2N=C3SCCN3C(c3cccc([N+](=O)[O-])c3)C12 (configuration not stated)
- inhibition zone (IZ) (Aspergillus niger [2]): 24 mm

- MIC (Candida tropicalis): 110 µM (≈ 31.4 µg/mL)
- MIC (Aspergillus niger [3]): 110 µM (≈ 31.4 µg/mL)
Compound: Nc1nc(-c2cccnc2)cc(-c2cnc(Cl)cn2)n1

Compound: COc1ccc(C2c3c([nH]c(=O)[nH]c3=O)OC3N=CN(C(=S)Nc4ccccc4)C(=N)C32)cc1 (configuration not stated)
- inhibition zone (IZ) (Aspergillus niger [2]): 10 mm

Compound: CCC(C)N1C=NC2Oc3[nH]c(=O)[nH]c(=O)c3C(c3ccc(OC)cc3)C2C1=N (configuration not stated)
- inhibition zone (IZ) (Aspergillus niger [2]): 10 mm

- MIC (Candida tropicalis): 97.3 µM (≈ 27.6 µg/mL)
- MIC (Aspergillus niger [3]): 97.3 µM (≈ 27.6 µg/mL)
Compound: Nc1nc(-c2ccccc2)cc(-c2cnc(Cl)cn2)n1

Compound: CC1=N/C(=C\c2ccc(Cl)cc2)C(=O)N1c1c(N)n(C)c(=O)n(C)c1=O
- inhibition zone (IZ) (Candida albicans [4]): 10 mm

- MIC (Candida tropicalis): 110 µM (≈ 31.8 µg/mL)
- MIC (Aspergillus niger [3]): 110 µM (≈ 31.8 µg/mL)
Compound: Nc1nc(Cc2ccco2)cc(-c2cnc(Cl)cn2)n1

Compound: O=[N+]([O-])c1ccccc1/C=N/c1ncnc2[nH]ccc12
- inhibition zone (IZ) (Saccharomyces cerevisiae [5]): 13 mm

Compound: CC1=NN(c2ccccc2)C2N=C3SCCN3C(c3ccccc3Cl)C12 (configuration not stated)
- inhibition zone (IZ) (Aspergillus niger [2]): 24 mm

Compound: CN(C)C=O [DIMETHYLFORMAMIDE]
- inhibition zone (IZ) (Candida albicans [1]): 16 mm
